Remaining activity data for four molecules are collected here from article PMC10970923, “In Vitro Evaluation of Essential Oils and Saturated Fatty Acids for Repellency against the Old-World Sand Fly, Phlebotomus papatasi (Scopoli) (Diptera: Psychodidae)” (Insects, 2024).

In the experiment the target is T1, rPpAChE1 (recombinant acetylcholinesterase of P. papatasi) (Phlebotomus papatasi, UniProt M1F887).
T1 construct: gene AChE
Briefly: residual AChE activity from initial velocities. The class given is biochemical. From the text: residual AChE activity from initial velocities on rPpAChE1 (recombinant acetylcholinesterase of P. papatasi)

Where two headings read alike, the source gives them in different places.

T1 sequence (M1F887 41-710): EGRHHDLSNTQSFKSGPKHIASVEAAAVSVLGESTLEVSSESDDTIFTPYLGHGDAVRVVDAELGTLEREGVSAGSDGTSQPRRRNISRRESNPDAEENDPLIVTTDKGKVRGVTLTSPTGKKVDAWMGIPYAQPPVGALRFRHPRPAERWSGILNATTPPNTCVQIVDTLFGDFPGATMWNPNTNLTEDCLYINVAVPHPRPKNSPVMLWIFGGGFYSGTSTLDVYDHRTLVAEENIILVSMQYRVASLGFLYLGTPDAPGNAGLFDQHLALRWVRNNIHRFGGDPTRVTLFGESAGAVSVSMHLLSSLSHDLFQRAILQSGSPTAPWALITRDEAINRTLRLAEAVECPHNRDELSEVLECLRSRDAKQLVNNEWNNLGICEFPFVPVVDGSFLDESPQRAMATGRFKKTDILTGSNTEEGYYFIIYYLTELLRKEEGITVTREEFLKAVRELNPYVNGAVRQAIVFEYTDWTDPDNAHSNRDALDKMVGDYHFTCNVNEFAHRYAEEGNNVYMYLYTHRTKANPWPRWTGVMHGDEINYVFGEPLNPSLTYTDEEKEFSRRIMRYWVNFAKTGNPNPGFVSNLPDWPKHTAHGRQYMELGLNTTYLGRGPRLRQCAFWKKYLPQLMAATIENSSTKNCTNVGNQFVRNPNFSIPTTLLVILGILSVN

For the molecule `CCCCCCCCC(=O)O` [Nonanoic acid], the remaining activity at 1000 µM (read-out: % Residual rPpAChE1 Activity (Compared to No Inhibitor) ± Std. Dev. ^* / Nonanoic Acid) came out at 96 ± 2.3%.
With `CCCCCCCCCCC(=O)O` [Undecanoic acid], the remaining activity at 1000 µM (read-out: % Residual rPpAChE1 Activity (Compared to No Inhibitor) ± Std. Dev. ^* / Undecanoic Acid) worked out at 98.2 ± 0.4%.
For the molecule `CCN(CC)C(=O)c1cccc(C)c1` [DEET, N,N-diethyl-m-toluamide], for the setting “read-out: % Residual rPpAChE1 Activity (Compared to No Inhibitor) ± Std. Dev. ^* / DEET”, the remaining activity at 1000 µM came out at 93.2 ± 1.4%.
In the case of `CCCCN(CCC(=O)OCC)C(C)=O` [IR3535], the remaining activity at 1000 µM (read-out: % Residual rPpAChE1 Activity (Compared to No Inhibitor) ± Std. Dev. ^* / IR3535) stood at 104 ± 5%.
